Columns and labels:
[1] = system: ULK kinase substrate ATG13 (phospho-Serine 318 ATG13) in MiaPaCa-2 cells; experiment: pATG13 ELISA in mutant KRas MiaPaCa-2 cells in combination with trametinib; type: cell-based; details: MiaPaCa-2 human pancreatic cancer cells, with 250 nM trametinib, overnight
Method: (§1) MiaPaCa-2 human pancreatic cancer cells (10000 cells/well) were added to a 384-well tissue-culture treated plate in 50 μL of pre-warmed DMEM medium supplemented with 10% characterized fetal bovine serum (Invitrogen, Carlsbad, Calif.), 100 units/mL penicillin G, 100 μg/mL streptomycin, and 2.5% Horse Serum and allowed to grow overnight at 37° C., 5% CO2, and 95% humidity. The following day, 10 μL of media containing trametinib or DMSO as a control was added to wells. The final concentration of trametinib in wells was 250 nM. A dose response of a test compound (0.6 μL per well) was added. DMSO (0.6 μL) was added to control wells. The plate was briefly shaken to mix wells and then incubated at 37° C. overnight. The next day, the media was aspirated and cells were washed with Dulbecco's Phosphate Buffered Saline (Gibco). Cells were lysed using MPER lysis buffer (Pierce, Rockford, Ill.) containing Halt Phosphatase and Protease Inhibitors (Pierce, Rockford, Ill.) and Phosphatase inhibitor cocktail 2 (Sigma, St. Louis, Mo.) at 4° C. for 10 minutes with shaking.
(§2) Cellular levels of phospho-Serine 318 ATG13 (pATG13) were measured via an ELISA method. Total ATG13 Antibody (Cell Signaling Cat #13273) was used to coat the wells. The plate was incubated at 4° C. overnight and washed with ELISA wash buffer (Biolegend Cat #421601). The wells were then blocked with assay diluent (Biolegend Cat #421203) for 1 hour at room temperature. Plate wells were washed with ELISA wash buffer. Cell lysate was added to wells and incubated at room temperature for 2 hours. Plate wells were washed with ELISA wash buffer. Biotinylated pS318-ATG13 antibody (Rockland Immunochemicals Cat #600-401-C49) was diluted in assay diluent and added to each well and incubated at room temperature for 1 hour. Plate wells were washed with ELISA wash buffer. Streptavidin linked to horseradish peroxidase (Thermo Fisher Cat #21140) was diluted in assay diluent and added to each well and incubated at room temperature for 1 hour. Plate wells were washed with ELISA wash buffer. High sensitivity TMB substrate (Biolegend Cat #421101) was added to each well and incubated at room temperature for 20 minutes. The reaction was stopped with 2N Sulfuric Acid. The plate was analyzed at on a plate reader measuring absorbance at 450 nm and 540 nm (background). Signal was calculated by first subtracting the background absorbance at 540 nm from the absorbance at 450 nm for each well. Next, the background corrected absorbance at 450 nm from blank wells was subtracted from test wells. Data was compared to control wells to determine % ATG13 phosphorylation. GraphPad Prism was used to calculate IC50 values.

[2] = molecular target: T1, ULK2 kinase (Homo sapiens, UniProt Q8IYT8); experiment: Biochemical assay for ULK2 (coupled pyruvate kinase/lactate dehydrogenase assay); details: 9.7 nM ULK2 (residues 1-306), myelin basic protein substrate, 1 mM ATP; read-out: ULK2.2
T1 construct: purchased Eurofins 14-772
Method: Activity of ULK2 kinase was determined spectroscopically using a coupled pyruvate kinase/lactate dehydrogenase assay that continuously monitors the ATP hydrolysis-dependent oxidation of NADH (e.g., Schindler et al. Science (2000) 289: 1938-1942). Assays were conducted in 384-well plates (100 uL final volume) using 9.7 nM ULK2 (Eurofins CAT #14-772), 0.25 mg/mL myelin basic protein, 1.5 units pyruvate kinase, 2.1 units lactate dehydrogenase, 1 mM phosphoenol pyruvate, 0.28 mM NADH and 1 mM ATP in assay buffer (100 mM Tris, pH 7.5, 15 mM MgCl2, 0.5 mM DTT, 0.1% octyl-glucoside, 0.002% (w/v) BSA, and 0.002% Triton X-100). Inhibition of ULK2 was measured by adding serial diluted test compound (final assay concentration of 1% DMSO). A decrease in absorption at 340 nm was monitored continuously for 6 hours at 30° C. on a multi-mode microplate reader (BioTek). The reaction rate was calculated using the 2-3 h time frame. The reaction rate at each concentration of compound was converted to percent inhibition using controls (i.e. reaction with no test compound and reaction with a known inhibitor) and IC50 values were calculated by fitting a four-parameter sigmoidal curve to the data using Prism (GraphPad software).

[3] = system: ULK kinase substrate ATG13 (phospho-Serine 318 ATG13) in A549 cells; experiment: pATG13 ELISA in mutant KRas A549 cells in combination with trametinib; type: cell-based; details: A549 (KRAS mutant) human lung cancer cells, with 250 nM trametinib, overnight
Method: as §1, with “A549 (KRAS mutant)” for “MiaPaCa-2”, “lung” for “pancreatic”, “(6,000” for “(10000”, “G, and” for “G,”, “streptomycin” for “streptomycin, and 2.5% Horse Serum”
as §2

[4] = molecular target: T2, LRRK2 kinase (Homo sapiens, UniProt Q5S007); experiment: Biochemical assay for LRRK2 (coupled pyruvate kinase/lactate dehydrogenase assay); details: 26.4 nM LRRK2 (residues 970-2528), peptide substrate, 1 mM ATP
T2 construct: (residues 970-2528; ID NO; 4); purchased Thermo Fisher
Method: Activity of LRRK2 kinase was determined spectroscopically using a coupled pyruvate kinase/lactate dehydrogenase assay that continuously monitors the ATP hydrolysis-dependent oxidation of NADH (e.g., Schindler et al. Science (2000) 289: 1938-1942). Assays were conducted in 384-well plates (100 uL final volume) using 26.4 nM LRRK2 (Thermo Fisher), 0.1 mM peptide substrate (RLGRDKYKTLRQIRQ (SEQ ID NO: 6)), 1.5 units pyruvate kinase, 2.1 units lactate dehydrogenase, 1 mM phosphoenol pyruvate, 0.28 mM NADH and 1 mM ATP in assay buffer (100 mM Tris, pH 7.5, 15 mM MgCl2, 0.5 mM DTT, 0.004% (w/v) BSA, and 0.004% Triton X-100). Inhibition of LRRK2 was measured by adding serial diluted test compound (final assay concentration of 1% DMSO). A decrease in absorption at 340 nm was monitored continuously for 6 hours at 30° C. on a multi-mode microplate reader (BioTek). The reaction rate was calculated using the 2-3 h time frame. The reaction rate at each concentration of compound was converted to percent inhibition using controls (i.e. reaction with no test compound and reaction with a known inhibitor) and IC50 values were calculated using software routines in Prism (GraphPad software).

T2 sequence (Q5S007 with tags, fused parts or gaps): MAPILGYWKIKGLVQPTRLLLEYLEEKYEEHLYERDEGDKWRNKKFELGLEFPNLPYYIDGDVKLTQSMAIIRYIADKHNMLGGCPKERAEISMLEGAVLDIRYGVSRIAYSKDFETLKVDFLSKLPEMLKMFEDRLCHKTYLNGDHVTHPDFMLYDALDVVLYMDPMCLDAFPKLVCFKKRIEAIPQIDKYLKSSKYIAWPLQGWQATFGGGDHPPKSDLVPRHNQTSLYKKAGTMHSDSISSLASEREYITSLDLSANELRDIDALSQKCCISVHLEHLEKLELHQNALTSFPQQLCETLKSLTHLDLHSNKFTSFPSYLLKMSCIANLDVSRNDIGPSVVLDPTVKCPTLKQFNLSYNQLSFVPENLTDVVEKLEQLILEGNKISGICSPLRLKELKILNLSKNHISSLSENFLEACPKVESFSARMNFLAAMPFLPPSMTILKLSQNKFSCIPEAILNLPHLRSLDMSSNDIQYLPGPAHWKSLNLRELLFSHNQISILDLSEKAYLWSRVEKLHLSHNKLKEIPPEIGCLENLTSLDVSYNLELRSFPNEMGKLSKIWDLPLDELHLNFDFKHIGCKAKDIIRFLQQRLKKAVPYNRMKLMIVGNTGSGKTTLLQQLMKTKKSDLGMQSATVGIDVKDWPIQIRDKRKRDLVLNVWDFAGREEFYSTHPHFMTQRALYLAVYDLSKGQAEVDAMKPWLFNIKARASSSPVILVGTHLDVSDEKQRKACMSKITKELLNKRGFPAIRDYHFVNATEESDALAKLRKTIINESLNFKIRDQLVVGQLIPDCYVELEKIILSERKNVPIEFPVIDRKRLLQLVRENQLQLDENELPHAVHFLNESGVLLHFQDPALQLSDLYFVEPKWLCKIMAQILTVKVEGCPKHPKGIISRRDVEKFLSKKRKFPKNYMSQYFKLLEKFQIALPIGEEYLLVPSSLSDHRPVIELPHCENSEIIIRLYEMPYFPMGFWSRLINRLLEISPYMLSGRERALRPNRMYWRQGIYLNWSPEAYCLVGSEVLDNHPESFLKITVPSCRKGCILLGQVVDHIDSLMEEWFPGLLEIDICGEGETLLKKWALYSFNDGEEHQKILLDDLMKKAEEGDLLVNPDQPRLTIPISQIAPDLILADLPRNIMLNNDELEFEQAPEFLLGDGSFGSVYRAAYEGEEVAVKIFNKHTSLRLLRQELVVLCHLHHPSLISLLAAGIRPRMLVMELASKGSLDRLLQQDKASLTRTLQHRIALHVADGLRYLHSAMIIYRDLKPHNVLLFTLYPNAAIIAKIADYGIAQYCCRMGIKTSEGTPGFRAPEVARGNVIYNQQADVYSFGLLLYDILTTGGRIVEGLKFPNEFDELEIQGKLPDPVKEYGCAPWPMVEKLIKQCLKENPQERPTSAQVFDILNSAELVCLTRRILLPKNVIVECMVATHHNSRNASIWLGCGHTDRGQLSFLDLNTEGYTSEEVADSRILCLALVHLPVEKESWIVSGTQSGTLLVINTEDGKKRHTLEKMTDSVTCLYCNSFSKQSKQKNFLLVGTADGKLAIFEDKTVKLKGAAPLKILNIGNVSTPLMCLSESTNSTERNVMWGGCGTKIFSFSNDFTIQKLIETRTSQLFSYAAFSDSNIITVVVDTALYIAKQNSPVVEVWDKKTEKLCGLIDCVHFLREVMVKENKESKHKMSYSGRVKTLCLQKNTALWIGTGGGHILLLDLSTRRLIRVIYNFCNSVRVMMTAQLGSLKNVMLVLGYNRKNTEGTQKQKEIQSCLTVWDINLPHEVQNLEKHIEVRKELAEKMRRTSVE
T1 sequence (Q8IYT8 with tags, fused parts or gaps): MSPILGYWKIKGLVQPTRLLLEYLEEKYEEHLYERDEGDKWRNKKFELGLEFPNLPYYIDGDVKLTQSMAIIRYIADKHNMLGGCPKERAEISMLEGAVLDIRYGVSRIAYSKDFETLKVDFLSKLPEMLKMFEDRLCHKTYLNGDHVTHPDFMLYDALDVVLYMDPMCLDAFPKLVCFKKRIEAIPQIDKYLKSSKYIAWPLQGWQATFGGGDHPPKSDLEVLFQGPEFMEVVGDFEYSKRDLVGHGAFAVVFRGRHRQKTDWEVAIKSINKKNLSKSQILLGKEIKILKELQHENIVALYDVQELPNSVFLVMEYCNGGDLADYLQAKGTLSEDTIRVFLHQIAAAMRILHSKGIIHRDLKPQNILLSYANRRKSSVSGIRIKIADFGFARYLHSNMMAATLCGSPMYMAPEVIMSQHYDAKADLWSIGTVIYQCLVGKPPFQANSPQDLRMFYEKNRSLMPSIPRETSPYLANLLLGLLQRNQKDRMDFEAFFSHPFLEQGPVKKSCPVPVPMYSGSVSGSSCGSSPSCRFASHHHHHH

Row | IC50 [1] [nM] | IC50 [2] [nM] | IC50 [3] [nM] | IC50 [4] [nM] | SMILES
1 | 10 to 100 | 25 to 100 | 100 to 300 | 1 to 100 | CC(C)c1cc(N2CCN(C)CC2)ccc1Nc1ncc(C(F)(F)F)c(NCCCNC(=O)C2CCC2)n1 [Example 3]
2 | 100 to 300 | 25 to 100 | 100 to 300 | 1 to 100 | COc1cc(N2CCN(C)CC2)ccc1Nc1ncc(C(F)(F)F)c(NCCCNC(=O)C2CCC2)n1 [Example 4]
3 | 100 to 300 | 100 to 500 | 100 to 300 | 600 to 20000 | CC(C)c1cc(N2CCN(C)CC2)ccc1Nc1ncc(Br)c(NCCCNC(=O)C2CCC2)n1 [Example 8]
4 | 100 to 300 | 100 to 500 | 300 to 600 | 100 to 300 | Cc1cc(N2CCN(C)CC2)ccc1Nc1ncc(C(F)(F)F)c(NCCCNC(=O)C(C)(C)C)n1 [Example 12]
5 | 10 to 100 | 1 to 25 | 10 to 100 | 100 to 300 | CN1CCN(c2ccc(Nc3ncc(C(F)(F)F)c(NCCCNC(=O)C4CCC4)n3)c(C3CC3)c2)CC1 [Example 14]

From patent US11590134B2, “Aminopyrimidine amide autophagy inhibitors and methods of use thereof” (Deciphera Pharmaceuticals, LLC, priority 2019, dated 2023)
